{
  "source": "patent US20110135634A1",
  "about": "“METHODS OF INHIBITING INFECTION BY DIVERSE SUBTYPES OF DRUG-RESISTANT HIV-1” (priority 2007, published 2011)",
  "key": {"[1]": {"test_system": "reporter viruses pseudotyped with HIV-1JR-FL envelope (U87-CD4-CCR5 cells)", "test": "microbe, parasite or virus in culture", "format": "cell-based"}, "[2]": {"test_system": "reporter viruses pseudotyped with HIV-1SF162 envelope (U87-CD4-CCR5 cells)", "test": "HIV-1 pseudovirus assay, SF162 envelope", "format": "cell-based", "details": "HIV-1 envelope SF162, 1st inhibitor alone", "source_text": "A self-inactivating (SIN) vector was derived from the pNL4-3ΔEnv-luciferase vector (Dragic et al. 1996) by deleting 507 basepairs in the U3 region of the 3′ long terminal repeat (LTR) so as to remove the TATA box and transcription factor binding sites. The human cytomegalovirus promoter was inserted upstream of the luciferase (luc) gene to enable expression of luciferase following integration.\nReporter viruses pseudotyped with HIV-1JR-FL or HIV-1SF162 envelopes were generated by cotransfection of 293T cells with the SIN vector and the appropriate pcDNA env-expressing vector as previously described (Dragic et al. 1996). […] Cultures were incubated for 72 h at 37° C. in DMEM containing 10% fetal bovine serum, […] puromycin, 0.3 mg/mL geneticin, antibiotics, and 0.5% DMSO. Luciferase activity (relative light units or RLU) was measured using. BrightGlo reagent (Promega, Madison, Wis.) according to the manufacturer's instructions.\nExperimental design and data analysis were based on the combination index (CI) method (Chou et al. 1991; Chou et al. 1984). […] The mutually exclusive CI formula was used for combinations of CCR5 inhibitors, while the mutually non-exclusive formula was utilized for combinations of inhibitors to distinct targets (Chou et al. 1991). Each test was conducted 4-12 times. Synergy, additivity and antagonism are indicated by CI<1, CI=1 and CI>1, respectively."}, "[3]": {"target": "T1, CCR5 on CEM.NKR-CCR5 cells (Homo sapiens, UniProt P51681)", "T1 construct": "host or cells: CEM.NKR-CCR5 (transduced human T cell leukemia line)", "T1 sequence (P51681 whole entry)": "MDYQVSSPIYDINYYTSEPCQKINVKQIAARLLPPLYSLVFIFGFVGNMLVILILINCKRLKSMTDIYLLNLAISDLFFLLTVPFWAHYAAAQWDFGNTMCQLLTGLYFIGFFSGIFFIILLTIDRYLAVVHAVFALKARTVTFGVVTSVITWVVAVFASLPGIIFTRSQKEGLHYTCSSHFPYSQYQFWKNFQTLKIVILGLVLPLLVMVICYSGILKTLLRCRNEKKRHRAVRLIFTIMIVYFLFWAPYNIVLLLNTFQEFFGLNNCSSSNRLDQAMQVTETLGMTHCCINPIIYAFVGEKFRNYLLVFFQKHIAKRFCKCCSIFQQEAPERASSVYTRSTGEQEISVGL", "test": "Competition binding: inhibition of PRO 140-PE binding", "details": "CEM.NKR-CCR5 cells, flow cytometry", "experimental": "Azide was added to block CCR5 internalization during the assay."}, "[4]": {"test_system": "primary R5 HIV-1 isolates JR-FL and Case C 1/85 (CC1/85)", "test": "In vitro resistance selection and susceptibility testing on PBMC", "format": "cell-based", "details": "p24 ELISA", "experimental": "For susceptibility testing, viruses were cultured in vitro on stimulated PBMC. In the presence and absence of serially diluted drug, and the extent of viral replication was determined by p24 ELISA."}, "HIV-1": {"test_system": "HIV-1", "details": "dose-dependent, treatment period of 10-14 days; cited from earlier work"}, "[5]": {"target": "CCR5 (CC-chemokine receptor 5) (human) (UniProt P51681)", "test": "cell-based or functional assay"}, "[6]": {"target": "HIV-1 JR-FL gp120 (HIV-1 strain JR-FL)", "test": "cell-based or functional assay"}, "[7]": {"target": "HIV-1 SF162 gp120 (HIV-1 strain SF162) (UniProt P19550)", "test": "cell-based or functional assay"}},
  "data": [
    {"compound": "COC[C@@H](c1ccc(C(F)(F)F)cc1)N1CCN(C2(C)CCN(C(=O)c3c(C)ncnc3C)CC2)C[C@@H]1C", "note": "[SCH-D, 1-[(4,6-dimethyl-5-pyrimidinyl)carbonyl]-4-[4-[2-methoxy-1(R)-4-(trifluoromethyl)phenyl]ethyl-3(S)-methyl-1-piperazinyl]-4-methylpiperidine]", "values": [
      {"measurement": "IC90", "setting": "[1]; HIV-1 envelope JRFL, 1st inhibitor alone, read-out: IC90", "value": 44, "unit": "nM"},
      {"measurement": "IC50", "setting": "[2]; read-out: IC50", "value": 0.34, "unit": "nM"},
      {"measurement": "IC90", "setting": "[2]; read-out: IC90", "value": 14, "unit": "nM"},
      {"measurement": "inhibition of PRO 140-PE binding (in words)", "setting": "[3]", "value": "modest levels of inhibition"},
      {"measurement": "inhibition of PRO 140 escape mutants", "setting": "[4]", "value": "efficiently inhibited"},
      {"measurement": "mean reductions in HIV-1 RNA levels", "setting": "HIV-1", "value": "~1", "unit": "log10"}
    ]},
    {"compound": "CCCCN1C(=O)[C@@H]([C@H](O)C2CCCCC2)NC(=O)C12CCN(Cc1ccc(Oc3ccc(C(=O)O)cc3)cc1)CC2", "note": "[GW873140]", "values": [
      {"measurement": "mean reductions in HIV-1 RNA levels", "setting": "HIV-1", "value": "~1", "unit": "log10"}
    ]},
    {"compound": "RANTES: CC-chemokine, natural peptide ligand of CCR5", "values": [
      {"measurement": "inhibition of HIV-1 pseudovirus entry", "setting": "[1]; compound alone (data not shown)", "value": "Neither TAK-779 nor RANTES mediated consistent, high-level inhibition"}
    ]},
    {"compound": "anti-CCR5 mAb 2D7 (antibody)", "values": [
      {"measurement": "IC50, HIV-1 reporter virus pseudotyped with JRFL envelope, U87-CD4-CCR5 cells", "setting": "[5]", "value": 8.8, "unit": "nM"},
      {"measurement": "IC50, HIV-1 reporter virus pseudotyped with SF162 envelope, U87-CD4-CCR5 cells", "setting": "[5]", "value": 2.2, "unit": "nM"},
      {"measurement": "IC90, HIV-1 reporter virus pseudotyped with JRFL envelope, U87-CD4-CCR5 cells", "setting": "[5]", "value": "> 200", "unit": "nM"},
      {"measurement": "IC90, HIV-1 reporter virus pseudotyped with SF162 envelope, U87-CD4-CCR5 cells", "setting": "[5]", "value": 74, "unit": "nM"}
    ]},
    {"compound": "PRO 542 (CD4-IgG2) (from UniProt P01730 26-204; P01730 26-203) (Fc fusion)", "values": [
      {"measurement": "IC50, HIV-1 reporter virus pseudotyped with JRFL envelope, U87-CD4-CCR5 cells", "setting": "[6]", "value": 0.19, "unit": "nM"},
      {"measurement": "IC90, HIV-1 reporter virus pseudotyped with JRFL envelope, U87-CD4-CCR5 cells", "setting": "[6]", "value": 2.9, "unit": "nM"},
      {"measurement": "IC50, HIV-1 reporter virus pseudotyped with SF162 envelope, U87-CD4-CCR5 cells", "setting": "[7]", "value": 0.36, "unit": "nM"},
      {"measurement": "IC90, HIV-1 reporter virus pseudotyped with SF162 envelope, U87-CD4-CCR5 cells", "setting": "[7]", "value": 7.1, "unit": "nM"}
    ]}
  ]
}
